Measurements from US20180110796A1, “COMPOSITIONS AND METHODS FOR THE TREATMENT OF HBV INFECTION” (Spring Bank Pharmaceuticals, Inc., priority 2015, published 2018).

Legend:
[1] = Plasma levels by LC-MS after oral Formula (IIa) (Example 2); format: in vivo, woodchuck (Marmota monax); conditions: 15 and 30 mg/kg oral, approximately 2 hours post-dose
Method: Plasma levels of Formula (Ia) were evaluated at pretreatment (T0) and then bi-weekly throughout the study at approximately 2 hours post-dose. Woodchuck plasma was analyzed by LC-MS and quantified using isotopically enriched internal standards.

[2] = test system: wild type HBV or resistant variants of HBV (polymerase M204V, M204I, L180M, L180M/M204V, N236T); assay: Antiviral assays in cells chronically infected with wild type HBV or resistant variants (Example 4); format: cell-based; conditions: added to the cells daily for nine consecutive days
Method: Antiviral assays were carried out in cells chronically infected with resistant variants of HBV. In order to gauge the efficacy of Formula (IIa) and the antiviral nucleoside analogs lamivudine (3TC) and adefovir dipivoxil (ADV) against the tested strains, the in vitro activity (EC50, μM) was determined using six different cell samples chronically infected with HBV. Each cell sample was infected with either wild type HBV or a resistant variant of HBV, wherein the resistant variants comprise mutations in the HBV polymerase (P) at the following amino acid positions: M204V, M204I, L180M, L180M/M204V, and N236T. In each assay, Formula (IIa), 3TC, or ADV was added to the cells daily for nine consecutive days.

[3] = test system: HBV-infected primary human hepatocytes; assay: In vitro studies using HBV-infected primary human hepatocytes; format: cell-based
Text: (§1) During viral infections, virus-derived nucleic acids (both DNA and RNA) are mainly sensed by certain pattern-recognition receptors such as RIG-1 and NOD2 which are located within the cytoplasm of cells, including hepatocytes. Binding of these viral sensor proteins to PAMP within the viral nucleic acids activates downstream signaling pathways which include the mitochondrial antiviral signaling protein (MAVS) leading to the induction of the IFN-regulatory factor-3 (IRF-3) and NF-κB dependent gene expression, and the subsequent production of type I and type III IFNs and inflammatory cytokines. Thus, sensing of viral nucleic acids is a crucial process to induce antiviral innate immune responses for limiting viral replication and for activation of adaptive immunity. For HBV it has been recently shown that RIG-1 sensing is mediated through recognition of the 5′-end ϵ region of the HBV pg RNA which leads to the induction of type III rather than type I IFNs in human primary hepatocytes in response to in vitro infection. In addition, activated RIG-1 is able to counter-act the interaction of the HBV polymerase protein with the HBV pgRNA in an IFN pathway independent manner resulting in suppressed viral replication. […]

[4] = test system: woodchuck hepatitis virus (WHV); assay: Antiviral efficacy of oral Formula (IIa) in chronic WHV carrier woodchucks (Example 2); format: in vivo, woodchuck (Marmota monax); conditions: for weeks per approximately 1 log10 decline of serum WHV DNA: 12-week treatment; for average reduction of serum WHV DNA at the end of treatment: week 12, vs T0; for maximum reduction of hepatic WHV DNA RI from pretreatment level / maximum reduction of hepatic WHV RNA from pretreatment level / maximum reduction of hepatic WHV cccDNA from pretreatment level: after 12 weeks; for maximum reduction of serum WHsAg: after 12 weeks of treatment
[5] = test system: IFN-α, IFN-β, CXCL10, IL-6, ISG15, OAS1, RIG-I/NOD2 pathway transcripts; assay: Host immune response gene transcripts in blood and liver by real time PCR (Example 2); format: in vivo, woodchuck (Marmota monax)
Method: Immune responses associated with Formula (IIa) treatment were determined by changes in RNA transcript levels of IFN-α, IFN-β, IFN-γ induced protein 10 (IP-10 or CXCL10), interleukin 6 (IL-6), interferon-induced 17 kDa protein (ISG15), and 2′-5′-oligoadenylate synthetase 1 (OAS1) in blood and liver using PCR techniques. Whole blood was collected into PAXgene blood tubes (Qiagen, Redwood City, Calif.) at pretreatment (week-1 and T0), during treatment (weeks 6 and 12), and during follow-up (week 18) and stored at −70° C. until use. Total RNA was isolated with on-column DNase I digestion using the PAXgene Blood miRNA Kit (Qiagen). Total RNA was further isolated from liver biopsy samples collected at pretreatment (week-1), during treatment (weeks 6 and 12), and at the end of the study (week 20) using the RNeasy Mini Kit (Qiagen) with on-column DNase I digestion using the RNase-Free DNase Set (Qiagen). Following reverse transcription of mRNA with the High Capacity cDNA Reverse Transcription Kit (Applied Biosystems) using oligo(dT), complementary (c) DNA samples were amplified on a 7500 Real Time PCR System instrument (Applied Biosystems) using TaqMan Gene Expression Master Mix (Applied Biosystems) and woodchuck-specific primers and probes (Supplementary Table 1). Woodchuck 18S rRNA expression was used to normalize target gene expression. Transcription levels of target genes were calculated as a fold-change relative to pretreatment level at week-1 (liver) or at T0 (blood) using the formula 2^−ΔΔCt. Samples from a subset of woodchucks from the LD and HD groups were analyzed for expression changes of genes involved in the RIG-I/NOD2 pathway induced by Formula (IIa), including RIG-I, NOD2, transmembrane protein 173 (TMEM173 or STING), interferon regulatory factor 3 (IRF3), and IRF7.

HCV, Norovirus and RSV = assay: In vitro and in vivo studies against RNA viruses
Text: as §1

[6] = 15 and 30 mg/kg, all treated woodchucks

**Q.** What does the source list for `COC1[C@@H](OP(=O)(OC[C@H]2O[C@@H](n3cnc4c(N)ncnc43)C[C@H]2O)SCOC(=O)OC(C)C)[C@@H](CO)O[C@H]1n1ccc(=O)[nH]c1=O` (some centres unmarked) [Formula (IIa)]?
**A.** plasma exposure following oral administration [1]: dose-dependent; efficacy against cells infected with wild type and resistant HBV strains (in vitro activity, FIG. 31) [2]: efficacious against cells infected with all the HBV strains tested; HBV DNA levels [3]: significant reduction; secreted HBsAg and HBV e antigen (HBeAg) ([3]; similar to IFN-α treatment): declines; seroconversion to anti-WHs antibodies and anti-WHe antibodies ([4]; 15 and 30 mg/kg, 12 weeks): not observed; hepatic expression scores of cytoplasmic WHcAg from pretreatment level [4, 6]: dose-dependent, transient reductions; scores of liver inflammation during the 12-week treatment period [4, 6]: unchanged or even reduced; delay in WHsAg rebound, high dose versus low dose ([4]; high dose 30 mg/kg): 1-7 week; delay in relapse of serum WHV DNA, high dose versus low dose ([4]; high dose 30 mg/kg): 2-4 weeks; time for serum WHV DNA to return to pretreatment level after withdrawal ([4]; high dose 30 mg/kg): 5-7 weeks; time for serum WHsAg to return to pretreatment level after the end of treatment ([4]; high dose 30 mg/kg): 6-8 weeks; weeks per approximately 1 log10 decline of serum WHV DNA ([4]; high dose 30 mg/kg daily oral): ~3 weeks; average reduction of serum WHV DNA at the end of treatment ([4]; high dose 30 mg/kg daily oral): 3.7 log10; maximum reduction of hepatic WHV DNA RI from pretreatment level ([4]; high dose 30 mg/kg): 38%; maximum reduction of hepatic WHV RNA from pretreatment level ([4]; high dose 30 mg/kg): 45%; maximum reduction of hepatic WHV cccDNA from pretreatment level ([4]; high dose 30 mg/kg): 25%; maximum reduction of serum WHsAg ([4]; high dose 30 mg/kg): 1.6 log10; time for serum WHV DNA to return to pretreatment level after withdrawal ([4]; low dose 15 mg/kg): 3-5 weeks; time for serum WHsAg to return to pretreatment level after completion of treatment ([4]; low dose 15 mg/kg): 1-5 weeks; weeks per approximately 1 log10 decline of serum WHV DNA ([4]; low dose 15 mg/kg daily oral): ~6 weeks; average reduction of serum WHV DNA at the end of treatment ([4]; low dose 15 mg/kg daily oral): 2.2 log10; maximum reduction of hepatic WHV DNA RI from pretreatment level ([4]; low dose 15 mg/kg): 19%; maximum reduction of hepatic WHV RNA from pretreatment level ([4]; low dose 15 mg/kg): 22%; maximum reduction of hepatic WHV cccDNA from pretreatment level ([4]; low dose 15 mg/kg): 16%; maximum reduction of serum WHsAg ([4]; low dose 15 mg/kg): 0.5 log10; activation of the RIG-I/NOD2 pathway (liver transcript levels of RIG-I, NOD2, TMEM173, IRF3) ([5]; 15 or 30 mg/kg, n=3 each): long-lasting activation; CXCL10 expression in liver ([5]; both dose groups, liver): significantly induced; mRNA expression of type I IFNs (IFN-α, IFN-β) and ISGs (OAS1, ISG15) in blood versus pretreatment ([5]; high dose 30 mg/kg, blood): significant induction; expression of IFN-β, IL-6 and OAS1 in liver versus pretreatment ([5]; high dose group, liver): significantly increased expression; expression of IL-6 and CXCL10 in blood versus pretreatment ([5]; low and high doses, blood): significantly induced; expression of IFN-α in liver versus pretreatment ([5]; low dose group, liver): significantly induced; antiviral activity against RNA viruses including HCV, Norovirus and RSV (HCV, Norovirus and RSV): potent antiviral activity
